For 18 molecules, Dmax and DC50 results are on record in patent US20250197387A1, “BCL-XL DEGRADERS AND USES THEREOF” (Kymera Therapeutics, Inc., priority 2021, published 2025).

The structures appear in SMILES notation. Where two headings read alike, the source gives them in different places. A value given as a limit tells only on which side of the number the result lay.

The target of the test is T1, BCL-XL (Homo sapiens, UniProt Q07817).
T1 construct: endogenous in cells; host or cells: MOLT-4
Kind of test: BCL-XL degradation assay, western blot in MOLT-4 cells, 16 h. In kind it is cell-based. Conditions: for DC50: read-out: Bcl-xL WB in MOLT-4 degradation 16 h: Mean external-Abs DC50. As to the method: Compounds treatment: compounds were reconstituted in DMSO to make a stock concentration of 10 mM. MOLT-4 cells were maintained in RPMI-1640+10% FBS+1% Penicillin-Streptomycin. Cells were seeded into 6-well plates in 2 mL at the seeding density of 2e6 cells/mL. Compounds were added to the cells to a final concentration ranging 0.02-10 μM. After 16 hr incubation at 37° C., in a CO2 incubator, cells were collected in an Eppendorf tube and centrifuged at 200×g for 5 minutes, the supernatant removed and pellets washed with ice-cold PBS, centrifuged and supernatant removed again. Then. 50 μl of pre-chilled RIPA lysis buffer (Boston BioProducts. BP-115D) with protease and phosphatase inhibitors (Roche Applied Science. #04906837001 and #04693116001) was added into cell pellet to lyze the cells for 20 minutes under 4° C. Cell lysates were spin at 13000 rpm for 10 minutes. Supernatants were collected and protein concentration was measured by BCA assay kit (Solarbio. PC0020-500) following the manufacturer's protocol. Samples' final protein concentration was adjusted to 3.75 μg/uL with the RIPA lysis buffer based on BCA assay results and 4× loading buffer (Invitrogen. NP0007) was added into the samples and samples were heated to 85° C., for 10 min and then let cool at RT. Samples were centrifuged at 13000 rpm for 10 min and then loaded into a 26-well NuPAGER. Novex 4-12% Bis-Tris Midi Gel (Invitrogen. WG1403BOX) and run in NuPAGER MOPS SDS Running Buffer (Invitrogen. NP0001) for 180 minutes at 70 V into a XCell4 SureLock™ Midi-Cell Runner (Invitrogen. WR0100). Gel were transferred using the Invitrogen iBlot gel transfer device (Invitrogen. IB21001) and the nitrocellulose transfer stacks (Invitrogen, IB23001) with Program PO for 9 minutes. The membrane was then blocked with 5% bovin serum albumin for 1 hr at RT, then incubated with primary antibodies diluted in blocking buffer (LI-COR. 927-60001) and shake at 4° C., overnight. The primary antibodies were anti-BCL-xL antibody (CST. 2762:1:1000), anti-beta-actin (CST. 3700; 1:5000) and anti-GAPDH (CST. 97166:1:5000). Membranes were then washed three times with PBST for 15 minutes at RT. Secondary antibodies IR-Dye 680 CW Goat anti Mouse IgG (LI-COR. 926-68070) and IR-Dye 800 CW Goat anti Rabbit IgG (LI-COR. 926-32211) were diluted at a ratio of 1:10000 into PBST and membranes incubated for 1 hour at RT. Membranes were then washed three times with PBST for 15 minutes at RT. The western blot images were obtained using Odyssey Imaging System and quantified using Image Studio Lite Ver 5.2 software.
The letter codes for BCL-XL DC50 include: A (<0.01 μM); B (0.01-0.1 μM); C (>[…]); D (>0.5-1.0 μM); and E (>1.0 μM). The letter codes for Dmax % include A (>75%); B (50 to 75%); C (<50%).
A general note: In western blotting, separated proteins are transferred to a membrane and probed.

Setting [1] is: western blot, MOLT-4 cells, 16 h, read-out: Bcl-xL WB in MOLT-4 degradation 16 h: Average Dmax %.
Setting [2] is: western blot, MOLT-4 cells, 16 h.

T1 sequence (Q07817 whole entry): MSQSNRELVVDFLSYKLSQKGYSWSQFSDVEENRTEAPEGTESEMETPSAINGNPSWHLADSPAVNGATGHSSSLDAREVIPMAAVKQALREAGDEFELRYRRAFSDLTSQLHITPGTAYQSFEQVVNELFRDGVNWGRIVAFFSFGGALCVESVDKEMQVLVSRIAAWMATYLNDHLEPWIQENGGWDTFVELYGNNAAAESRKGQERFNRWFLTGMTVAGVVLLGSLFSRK

One may read the Dmax as the greatest extent of degradation seen. Broadly, the DC50 is the midpoint of the concentration-degradation curve. With `Cc1ncsc1-c1ccc(CNC(=O)[C@@H]2C[C@@H](O)CN2C(=O)[C@@H](NC(=O)C2(F)CC2)C(C)(C)C)c(O[C@H]2CC[C@H](C(=O)N3CCN(CC[C@H](CSc4ccccc4)Nc4ccc(S(=O)(=O)NC(=O)c5ccc(N6CCN(CC7=C(c8ccc(Cl)cc8)CCC(C)(C)C7)CC6)cc5)cc4S(=O)(=O)C(F)(F)F)CC3)CC2)c1` [I-89], the Dmax under setting [1] was less than 50%. Moreover, the DC50 under setting [2] is more than 1000 nM.

Consider `Cc1ncsc1-c1ccc([C@H](C)NC(=O)[C@@H]2C[C@@H](O)CN2C(=O)[C@@H](NC(=O)CCCCCCCCC(=O)N2CCN(CC[C@H](CSc3ccccc3)Nc3ccc(S(=O)(=O)NC(=O)c4ccc(N5CCN(CC6=C(c7ccc(Cl)cc7)CCC(C)(C)C6)CC5)cc4)cc3S(=O)(=O)C(F)(F)F)CC2)C(C)(C)C)cc1` [I-1, (2S,4R)-1-((S)-2-(10-(4-((R)-3-((4-(N-(4-(4-((4′-chloro-4,4-dimethyl-3,4,5,6-tetrahydro-[1,1′-biphenyl]-2-yl)methyl)piperazin-1-yl)benzoyl)sulfamoyl)-2-((trifluoromethyl)sulfonyl)phenyl)amino)-4-(phenylthio)butyl)piperazin-1-yl)-10-oxodecanamido)-3,3-dimethylbutanoyl)-4-hydroxy-N-((S)-1-(4-(4-methylthiazol-5-yl)phenyl)ethyl)pyrrolidine-2-carboxamide], for which the greatest degradation seen (Dmax) under setting [1] is more than 75%. The DC50 under setting [2] fell in the range of 100 to 500 nM.

Consider `Cc1ncsc1-c1ccc(CNC(=O)[C@@H]2C[C@@H](O)CN2C(=O)[C@@H](NC(=O)C2(F)CC2)C(C)(C)C)c(OCCCCCCCCC(=O)N(C)CC#Cc2ccc(OCCCc3sc(N4CCc5cccc(C(=O)Nc6nc7ccccc7s6)c5C4)nc3C(=O)O)c(F)c2)c1` [I-386], for which the Dmax under setting [1] is more than 75%. For the same molecule, under setting [2], the DC50 fell in the range of 10 to 100 nM.

Take `Cc1ncsc1-c1ccc(CNC(=O)[C@@H]2C[C@@H](O)CN2C(=O)[C@@H](NC(=O)C2(F)CC2)C(C)(C)C)c(OCCCCCC(=O)N(C)CC#Cc2cccc(F)c2OCCCc2sc(N3CCc4cccc(C(=O)Nc5nc6ccccc6s5)c4C3)nc2C(=O)O)c1` [I-19]: the Dmax under setting [1] is less than 50%. Besides, the DC50 under setting [2] was more than 1000 nM.

Consider `Cc1ncsc1-c1ccc(CNC(=O)[C@@H]2C[C@@H](O)CN2C(=O)C(c2cc(OCCCCCC(=O)N(C)CC#Cc3ccc(OCCCc4sc(N5CCc6cccc(C(=O)Nc7nc8ccccc8s7)c6C5)nc4C(=O)O)c(F)c3)no2)C(C)C)cc1` (stereo partly drawn) [I-87], for which the greatest degradation seen (Dmax) under setting [1] was more than 75%. The DC50 under setting [2] lay in the range of 10 to 100 nM.

As to `Cc1ncsc1-c1ccc([C@H](C)NC(=O)[C@@H]2C[C@@H](O)CN2C(=O)[C@@H](NC(=O)N2CCC3(CCC(C(=O)N4CCN(CC[C@H](CSc5ccccc5)Nc5ccc(S(=O)(=O)NC(=O)c6ccc(N7CCN(CC8=C(c9ccc(Cl)cc9)CCC(C)(C)C8)CC7)cc6)cc5S(=O)(=O)C(F)(F)F)CC4)CC3)CC2)C(C)(C)C)cc1` [I-126], the Dmax under setting [1] was less than 50%. Moreover, the DC50 under setting [2] was more than 1000 nM.

For the molecule `Cc1ncsc1-c1ccc([C@H](C)NC(=O)[C@@H]2C[C@@H](O)CN2C(=O)[C@@H](NC(=O)CCCC(=O)N2CCN(CCCC3(Cn4ncc(-c5ccc(N6CCc7cccc(C(=O)Nc8nc9ccccc9s8)c7C6)nc5C(=O)O)c4C)CCCCC3)CC2)C(C)(C)C)cc1` [I-130], under setting [1], the Dmax lay in the range of 50 to 75%. Besides, the DC50 under setting [2] lay in the range of 100 to 500 nM.

`Cc1ncsc1-c1ccc(CNC(=O)[C@@H]2C[C@@H](O)CN2C(=O)[C@@H](NC(=O)C2(F)CC2)C(C)(C)C)c(OCCCCCC(=O)N(C)CC#Cc2ccc(OCCCc3sc(N4CCc5cccc(C(=O)Nc6nc7ccccc7s6)c5C4)nc3C(=O)O)c(F)c2)c1` [I-7]: the Dmax under setting [1] was in the range of 50 to 75%. The DC50 under setting [2] lay within 500 to 1000 nM.

As for `Cc1ncsc1-c1ccc([C@H](C)NC(=O)[C@@H]2C[C@@H](O)CN2C(=O)[C@@H](NC(=O)CCCNC(=O)CCC2(Cn3ncc(-c4ccc(N5CCc6cccc(C(=O)Nc7nc8ccccc8s7)c6C5)nc4C(=O)O)c3C)CCCCC2)C(C)(C)C)cc1` [I-129], the Dmax under setting [1] is more than 75%. Further, the half-maximal degradation concentration (DC50) under setting [2] was in the range of 100 to 500 nM.

`Cc1ncsc1-c1ccc([C@H](C)NC(=O)[C@@H]2C[C@@H](O)CN2C(=O)[C@@H](NC(=O)N2CC3(CCC(C(=O)N4CCN(CC[C@H](CSc5ccccc5)Nc5ccc(S(=O)(=O)NC(=O)c6ccc(N7CCN(CC8=C(c9ccc(Cl)cc9)CCC(C)(C)C8)CC7)cc6)cc5S(=O)(=O)C(F)(F)F)CC4)CC3)C2)C(C)(C)C)cc1` [I-125]: under setting [1], the maximal degradation (Dmax) was less than 50%. Under setting [2], the DC50 is more than 1000 nM.

Take `Cc1ncsc1-c1ccc([C@H](C)NC(=O)[C@@H]2C[C@@H](O)CN2C(=O)[C@@H](NC(=O)CCCCCCCC(=O)N(C)CCCc2cccc(F)c2OCCCc2sc(N3CCc4cccc(C(=O)Nc5nc6ccccc6s5)c4C3)nc2C(=O)O)C(C)(C)C)cc1` [I-11]: under setting [1], the Dmax is more than 75%. The DC50 under setting [2] was 100 to 500 nM.

As for `Cc1ncsc1-c1ccc([C@H](C)NC(=O)[C@@H]2C[C@@H](O)CN2C(=O)[C@@H](NC(=O)CCCCCC(=O)N2CCN(CCCC3(Cn4ncc(-c5ccc(N6CCc7cccc(C(=O)Nc8nc9ccccc9s8)c7C6)nc5C(=O)O)c4C)CCCCC3)CC2)C(C)(C)C)cc1` [I-131], the Dmax under setting [1] lay in the range of 50 to 75%. In addition, the DC50 under setting [2] lay within 100 to 500 nM.

Consider `C#Cc1ccc([C@H](C)NC(=O)[C@@H]2C[C@@H](O)CN2C(=O)[C@@H](NC(=O)N2CCC3(CCC(C(=O)N4CCN(CC[C@H](CSc5ccccc5)Nc5ccc(S(=O)(=O)NC(=O)c6ccc(N7CCN(CC8=C(c9ccc(Cl)cc9)CCC(C)(C)C8)CC7)cc6)cc5S(=O)(=O)C(F)(F)F)CC4)CC3)CC2)C(C)(C)C)cc1` [I-127], for which the Dmax under setting [1] was less than 50%. Besides, the DC50 under setting [2] is more than 1000 nM.

On to `Cc1ncsc1-c1ccc([C@H](C)NC(=O)[C@@H]2C[C@@H](O)CN2C(=O)[C@@H](NC(=O)C[C@H]2CC[C@H](C(=O)N3CCN(CC[C@H](CSc4ccccc4)Nc4ccc(S(=O)(=O)NC(=O)c5ccc(N6CCN(CC7=C(c8ccc(Cl)cc8)CCC(C)(C)C7)CC6)cc5)cc4S(=O)(=O)C(F)(F)F)CC3)CC2)C(C)(C)C)cc1` [I-390], for which the Dmax under setting [1] is more than 75%. The 50% degradation concentration (DC50) under setting [2] was in the range of 10 to 100 nM.

For `Cc1ncsc1-c1ccc(CNC(=O)[C@@H]2C[C@@H](O)CN2C(=O)[C@@H](NC(=O)C2(F)CC2)C(C)(C)C)c(OCCCN2CCN(CC[C@H](CSc3ccccc3)Nc3ccc(S(=O)(=O)NC(=O)c4ccc(N5CCN(CC6=C(c7ccc(Cl)cc7)CCC(C)(C)C6)CC5)cc4)cc3S(=O)(=O)C(F)(F)F)CC2)c1` [I-132, (2S,4R)—N-(2-(3-(4-((R)-3-((4-(N-(4-(4-((4′-chloro-4,4-dimethyl-3,4,5,6-tetrahydro-[1,1′-biphenyl]-2-yl)methyl)piperazin-1-yl)benzoyl)sulfamoyl)-2-((trifluoromethyl)sulfonyl)phenyl)amino)-4-(phenylthio)butyl)piperazin-1-yl)propoxy)-4 (4-methylthiazol-5-yl)benzyl)-1-((S)-2-(1-fluorocyclopropanecarboxamido)-3,3-dimethylbutanoyl)-4-hydroxypyrrolidine-2-carboxamide], where the note is “MOLT-4, read-out: Bcl-xL WB in MOLT-4 degradation 16 h: Average Dmax %”, the Dmax is more than 75%. Moreover, the DC50 under setting [2] fell in the range of 10 to 100 nM.

Consider `Cc1ncsc1-c1ccc([C@H](C)NC(=O)[C@@H]2C[C@@H](O)CN2C(=O)[C@@H](NC(=O)C2(F)CC2)C(C)(C)C)c(OCC(=O)N2CCN(CC[C@H](CSc3ccccc3)Nc3ccc(S(=O)(=O)NC(=O)c4ccc(N5CCN(CC6=C(c7ccc(Cl)cc7)CCC(C)(C)C6)CC5)cc4)cc3S(=O)(=O)C(F)(F)F)CC2)c1` [I-112], for which the Dmax under setting [1] is 50 to 75%. Also, under setting [2], the half-maximal degradation concentration (DC50) is 500 to 1000 nM.

For `Cc1ncsc1-c1ccc(CNC(=O)[C@@H]2C[C@@H](O)CN2C(=O)[C@@H](NC(=O)C2(F)CC2)C(C)(C)C)c(OCCCC(=O)N(C)CCCc2cccc(F)c2OCCCc2sc(N3CCc4cccc(C(=O)Nc5nc6ccccc6s5)c4C3)nc2C(=O)O)c1` [I-12], under setting [1], the Dmax lay within 50 to 75%. Further, the half-maximal degradation concentration (DC50) under setting [2] was 500 to 1000 nM.

With `Cc1cc(N(CCN(C)C(=O)CCCC(=O)N[C@H](C(=O)N2C[C@H](O)C[C@H]2C(=O)N[C@@H](C)c2ccc(-c3scnc3C)cc2)C(C)(C)C)c2ccc(-c3cnn(CC4CCCCC4)c3C)c(C(=O)O)n2)nnc1Nc1nc2ccccc2s1` [I-99], the Dmax under setting [1] lay in the range of 50 to 75%. The DC50 under setting [2] was more than 1000 nM.
